Experimental findings from BindingDB's records for doi:10.1021/np9704922 (University of Naples Federico II, 1998) are described below.

The assay can be described thus: Inhibition of human synovial secretory PLA2.

Molecules are shown by their SMILES.

Usually IC50 stands for the concentration needed to halve the response being measured. The low end stands for greater potency, the high end for weaker potency. `CC1(C)CCC[C@]2(C)[C@H]3CC[C@@H]4[C@H](O)O[C@@H](C5=CC(=O)OC5O)C[C@H]4[C@]3(C)CC[C@@H]12` (stereo partly specified) [Petrosaspongiolide P] returned an IC50 of 3.8 µM.
